Values of other authors as cited in US6780852B2 (priority 1997, dated 2004).

## Ferric gluconate
  transient hypotension and flushing, share of exposed patients: 1%
